According to patent US20070037253A1, “Methods and compositions for treatment of arthritis and cancer” (priority 2003, published 2007):
Where a SMILES comes first, the peptide text is derived from it.

Experiments:
secreted MMP-2 = target: T1, secreted MMP-2 (Oryctolagus cuniculus, UniProt P50757); experiment: Secreted gelatinase activity of IL-1β-stimulated rabbit synovial fibroblasts treated with peptide (FIG. 4B); format: cell-based; settings: cells treated with 1-10 μM peptide, IL-1β stimulation
T1 construct: endogenous in cells; host or cells: HIG-82 rabbit fibroblast-like synoviocytes (ATCC CRL-1832)
T1 sequence (P50757 110-662): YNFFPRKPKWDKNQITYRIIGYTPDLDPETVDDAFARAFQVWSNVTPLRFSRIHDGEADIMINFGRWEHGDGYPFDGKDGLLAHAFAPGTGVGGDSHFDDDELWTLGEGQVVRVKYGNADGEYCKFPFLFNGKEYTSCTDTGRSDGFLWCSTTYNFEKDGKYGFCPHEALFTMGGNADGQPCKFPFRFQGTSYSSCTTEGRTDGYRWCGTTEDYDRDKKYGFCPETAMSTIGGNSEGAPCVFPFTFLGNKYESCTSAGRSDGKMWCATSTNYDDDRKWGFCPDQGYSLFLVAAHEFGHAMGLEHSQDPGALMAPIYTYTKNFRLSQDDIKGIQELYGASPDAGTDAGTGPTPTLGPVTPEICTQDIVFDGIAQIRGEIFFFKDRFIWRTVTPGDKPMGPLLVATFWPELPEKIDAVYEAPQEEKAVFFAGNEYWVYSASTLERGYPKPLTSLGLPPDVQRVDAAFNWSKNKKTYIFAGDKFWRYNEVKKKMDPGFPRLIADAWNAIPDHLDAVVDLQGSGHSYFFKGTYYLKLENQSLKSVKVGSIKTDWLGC
Protocol: (§1) Gelatinase activity in the supernatants from cells induced with IL-1β (5 ng) for 48 h was analyzed by gelatin zymography. (A) Supernatants (activated with final 1 mM APMA at 30° C. for 30 min) were pre-incubated with various inhibitors. (5 μM peptides or 1-2 μM Calbiochem MMP inhibitor II) for 1 h at 25° C. prior to zymographic analyses—Lane 1, without activation (no inhibitor); Lane 2, with activation (no inhibitor); Lanes 3-8, with activation plus inhibitor: 3, P-NT-II; 4, PIP [59-67] monomer; 5, PIP [57-67] dimer; 6, PIP [59-67] dimer; 7 and 8, positive control MMP Inhibitor II (Calbiochem) at 1 and 2 μM concentrations. (B) Rabbit synovial fibroblasts were stimulated by IL-1β in the presence or absence of 1-10 μM of PIP [59-67] dimer for 48 h. Culture supernatants were concentrated by centrifugation (Centricon centrifugal filter devices, M.W. cutoff 30,000) and activated with APMA (1 mM final) before measurement of gelatinase activity by gelatin zymography. Lanes: 1 (−peptide−APMA); 2 (−peptide+APMA); 3 (+1 μM peptide+APMA); 4 (+5 μM peptide+APMA); 5 (+7.5 μM peptide+APMA); 6 (+10 μM peptide+APMA).
(§2) Gelatin zymography: human synovial fluid, purified human recombinant MMP-2 and -9 or APMA-activated concentrated culture supernatant samples (10 μL) was mixed (1:1) with Laemmli sample buffer, loaded on 4% acrylamide stacking gel and electrophoresed (120 V) at 4° C. on a 10% acrylamide-resolving minigel containing 0.1% gelatin. After electrophoresis for 1 h, the gels were soaked in 2.5% Triton X-100 on a shaker for 1 h, changing the solution after 30 min, to eliminate SDS. After overnight incubation in zymogen activation buffer [50 mM Tris-HCl, pH 7.5, containing 10 mM CaCl2 and 5 mM ZnCl2] at 37° C., the gels were rinsed in distilled water, and stained for 3 hr with […], after which clear bands of digested gelatin were clearly visible. The gels were briefly rinsed in distilled water and scanned by the Bio-Rad GS-710 Calibrated Imaging Densitometer.
(§3) FLSC culture and inhibition of extracellular MMP activity: All experiments were performed on HIG-82 rabbit fibroblast-like synoviocytes (FLSCs) obtained from American Type Culture Collection (Manassas, Va.; catalogue No. CRL-1832). FLSCs were grown in Ham's F-12 medium containing 10% fetal bovine serum (FBS) and 1% penicillin/streptomycin, as recommended by the supplier. For experimental purposes, FLSCs were seeded into 12-well plates, grown to near confluence, and then serum starved (Ham's F-12 without FBS or penicillin/streptomycin) for 16 h. […] After activation with APMA (1 mM final concentration), the samples were measured for MMP-1 activity using BIOMOL AK-404 QuantiZyme Assay system, and for MMP-2 and -9 activities by gelatin zymography.

secreted MMP-9 = target: T2, secreted MMP-9 (Oryctolagus cuniculus, UniProt P41246); experiment: as above; format: cell-based; settings: cells treated with 1-10 μM peptide, IL-1β stimulation
T2 construct: endogenous in cells; host or cells: HIG-82 rabbit fibroblast-like synoviocytes (ATCC CRL-1832)
T2 sequence (P41246 107-707): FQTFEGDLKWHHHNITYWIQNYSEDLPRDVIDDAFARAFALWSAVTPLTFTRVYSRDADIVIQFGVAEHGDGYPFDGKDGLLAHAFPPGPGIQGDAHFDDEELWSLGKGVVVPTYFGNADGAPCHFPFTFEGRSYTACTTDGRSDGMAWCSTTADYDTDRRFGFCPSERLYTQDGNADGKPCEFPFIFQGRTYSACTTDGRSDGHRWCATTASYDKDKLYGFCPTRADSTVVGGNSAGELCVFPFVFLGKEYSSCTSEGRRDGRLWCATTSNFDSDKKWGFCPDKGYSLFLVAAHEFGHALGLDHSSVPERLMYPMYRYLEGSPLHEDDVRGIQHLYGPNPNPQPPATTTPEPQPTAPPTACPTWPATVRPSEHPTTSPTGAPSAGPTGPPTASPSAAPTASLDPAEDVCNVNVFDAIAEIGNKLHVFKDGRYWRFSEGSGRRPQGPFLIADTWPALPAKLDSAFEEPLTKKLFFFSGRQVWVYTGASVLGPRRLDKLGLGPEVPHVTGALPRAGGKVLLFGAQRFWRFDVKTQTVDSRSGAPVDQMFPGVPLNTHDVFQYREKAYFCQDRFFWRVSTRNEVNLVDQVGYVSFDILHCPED
Protocol: as §1, §2, §3

collagenase I (MMP-1) = experiment: Collagenase activity assay, collagen thin film (collagen type II substrate); format: biochemical; settings: collagen thin film method, FIG. 2; read-out: IC50 (mean±SD), collagenase I (MMP-1)
Protocol: Collagenase activity was assayed by collagen thin film method using collagen type II as substrate. IC50 values were graphically determined from the inhibition curves, constructed on the basis of the in vitro results of collagenase assays. Results are the mean±SD of 3 separate experiments done in triplicates. (•), P-NT.II; (□), PIP [59-67] dimer; (Δ), PIP [59-67} monomer; (∇), LY 315920.
Collagenase activity assay: Using collagen thin film as the substrate, a quantitative method was established to measure the enzymatic activity of the MMPs (principally collagenase). Collagen type II (Sigma) solution (4 μL, 3 mg/mL in 0.012 N HCl) was added to each well of 96-well plates and precipitated by slowly increasing the pH with 4 μL of H2O and 8 μL of 0.012 N NaOH. The plate was dried at 23° C. for 24 hr, washed with H2O, and dried again at 23° C., resulting in a thin film containing 12 μg of collagen that was tightly bound to the bottom of the wells. Enzymatic reactions of the collagenase I (with and without peptide inhibitors) against the collagen films were carried out in quadruplicate at 24° C. for 16 h. The digested portion of the film was washed away, while the undigested portion was fixed for 3 h with 0.1% Coomassie brilliant blue R in 10% acetic acid and 45% methanol, and the wells washed and dried.

SMILES: CC[C@H](C)[C@H](NC(=O)[C@H](CC(=O)O)NC(=O)[C@@H](N)C(C)C)C(=O)N[C@@H](Cc1c[nH]cn1)C(=O)N[C@H](C(=O)N[C@@H](Cc1c[nH]c2ccccc12)C(=O)N[C@@H](CC(=O)O)C(=O)NCC(=O)N[C@H](C(=O)N[C@H](C(=O)N[C@@H](CC(=O)O)C(=O)N[C@H](C(=O)N[C@@H](Cc1c[nH]cn1)C(=O)N[C@H](C(=O)N[C@@H](Cc1c[nH]c2ccccc12)C(=O)N[C@@H](CC(=O)O)C(=O)NCC(=O)N[C@H](C(=O)O)C(C)C)C(C)C)[C@@H](C)CC)C(C)C)C(C)C)C(C)C [PIP [59-67] dimer] (H-VDIHVWDGVVDIHVWDGV-OH; N-terminus and C-terminus assumed)
- activity of secreted MMP-2 (secreted MMP-2): failed to inhibit
- activity of secreted MMP-2 (secreted MMP-2; listed as dimerized peptide): less marked
- activity of secreted MMP-9 (secreted MMP-9): failed to inhibit
- activity of secreted MMP-9 (secreted MMP-9; listed as dimerized peptide): less marked
- IC50 (collagenase I (MMP-1)): 7.75 ± 1.11 µM
